{"source": "patent EP1565179B1", "about": "“COMPOSITION COMPRISING A CARBAMIC ACID DERIVATIVE, ITS USE AS COSMETIC AND MEDICINE” (Laboratoires Expanscience, priority 2002, dated 2004)", "key": {"[1]": {"system": "cellules dendritiques générées in vitro à partir de précurseurs CD34+ issus de sang de cordon", "assay": "Migration of hapten BB-sensitised in vitro generated dendritic/Langerhans cells through Matrigel in a two-compartment culture chamber", "type": "cell-based", "protocol": "Des cellules mononuclées ont été obtenues à partir de sang de cordon ombilical de donneurs sains, par centrifugation sur Ficoll. Les cellules CD34+ ont ensuite été purifiées par immunosélection à l'aide d'anticorps spécifique et de billes magnétiques (Miltenyi Biotech, Allemagne). Les cellules CD34+ ont été cultivées en présence de GM-CSF (100 ng/ml), TNF-α (2,5 ng/ml) en RPMI additionné de 10% sérum de veau foetal, pendant 5 jours. L'addition de TGF-β1, facteur qui favorise la différenciation des cellules vers la voie cellules de Langerhans, a été réalisée au cinquième jour de culture.\nLe milieu de base choisi pour l'ensemble de l'étude a été le RPMI 1640 (Gibco BRL, France). Le composé A fourni par EXPANSCIENCE, à la concentration de 10^-2 M en solution dans du DMSO (Diméthyl Sulfoxide), a été dilué en RPMI-1640 et testé à 1 µM.\nLes cellules ont été traitées, au septième jour, par l'haptène BB (Base de Brandowski, 1,17 µg/ml), pendant 24 h, puis soumises au test de migration.\nUn système de chambre de culture à deux compartiments (Falcon, Becton Dickinson, France) a été utilisé. Le compartiment supérieur est séparé du compartiment inférieur par une membrane de porosité 8 µm, sur laquelle sont déposées 50 µg/cm^2 de Matrigel. […]"}, "[2]": {"system": "cellules de Langerhans (CL) et cellules dendritiques (CD)", "assay": "Migration of skin dendritic cells (FITC+) to draining lymph nodes in mice after topical FITC hapten application", "type": "in vivo, souris", "conditions": "0,5% topical formulation on mouse ears twice daily for 4 days; 1,5% FITC; lymph nodes analysed 24 h later", "source_text": "Le FITC (Fluorescéine isothiocyanate, Sigma, St. Louis, MO) a été dilué extemporanément dans un mélange acétone: dibutylphthalate (1:1).\nL'acide carbamique A (acide 1-Hydroxyméthyl-tridécyl carbamique) et le LU105 (LU 105 est un inhibiteur de MMPs, correspondant à un extrait peptidique de lupin blanc commercialisé par la Société Expanscience sous le nom de marque Actimp 193®) ont été fournis par les \"Laboratoires Expanscience\", et formulés seuls ou en association dans un véhicule inerte compatible avec une application topique tel que décrit à l'exemple 1 ci-dessus [Acide carbamique A (0,5%) ± LU105 (2%)]. Les différentes formulations ont été appliquées sur les oreilles de souris deux fois par jour pendant 4 jours consécutifs. Trois heures après la dernière application, 1,5% de FITC sont appliqués sur les deux oreilles (l'une traitée et l'autre non traitée (Contrôle)).\nL'effet des deux molécules a été évalué in vivo chez la souris. La peau des deux oreilles est badigeonnée avec 1,5% FITC (2X5 µl). 24 h après, les souris sont sacrifiées et une suspension cellulaire est préparée à partir des ganglions auriculaires et cervicaux (ganglions drainants, ci-après dénommés GL) ou à partir des ganglions popliteaux (ganglions non drainants, contrôle négatif). Les tissus ont été découpés et les cellules sont séparées par filtration (filtre […], Falcon; Becton Dickinson), puis lavés. […]"}}, "data": [{"smiles": "CCCCCCCCCCCCC(CO)NC(=O)O", "note": "(stereo not drawn) [Composé A, (1-Hydroxyméthyl-tridécyl)-acide carbamique]", "values": [{"measurement": "Pourcentage de cellules dendritiques générées in vitro ayant migré", "setting": "[1]; 1 µM, cells sensitised with hapten BB (1,17 µg/ml, 24 h), 18 h incubation at 37°C, BB-only control 20", "value": 15, "unit": "%"}, {"measurement": "inhibition at 1 µM", "setting": "[1]; read-out: inhibition de la migration des cellules dendritiques générées in vitro et activées par l'haptène BB", "value": 25, "unit": "%"}, {"measurement": "Inhibition de la migration en %", "setting": "[2]", "value": 25, "unit": "%"}]}]}
